Reference: patent US8816070B2, “Triazole derivative as an HSP 90 inhibitor” (Merck Patent GmbH, priority 2007, dated 2014)

Legend:
[1] = biological target: T1, Recombinant human HSP90α (Homo sapiens, UniProt P07900); assay: HSP90 radioligand filter binding test ([3H]17AAG competition)
T1 construct: host or cells: E. coli
Description: The binding of geldanamycin or 17-allylamino-17-demethoxygeldanamycin (17AAG) to HSP90 and competitive inhibition thereof can be utilised in order to determine the inhibitory activity of the compounds according to the invention (Carreras et al. 2003, Chiosis et al. 2002).
In the specific case, a radioligand filter binding test is used. The radioligand used here is tritium-labelled 17-allylaminogeldanamycin, [3H]17AAG. This filter binding test allows a targeted search for inhibitors which interfere with the ATP binding site.
Recombinant human HSP90α (E. coli expressed, 95% purity); [3H]17AAG (17-allylaminogeldanamycin, [allylamino-2,3-^3H. Specific activity: 1.11×10^12 Bq/mmol (Moravek, MT-1717);
HEPES filter buffer (50 mM HEPES, pH 7.0, 5 mM MgCl2, BSA 0.01%) Multiscreen FB (1 μm) filter plate (Millipore, MAFBNOB 50).
The 96-well microtitre filter plates are firstly irrigated and coated with 0.1% of polyethylenimine.
At the end of the reaction, the supernatant in the filter plate is removed by suction with the aid of a vacuum manifold (Multiscreen Separation System, Millipore), and the filter is washed twice.
The filter plates are then measured in a beta counter (Microbeta, Wallac) with scintillator (Microscint 20, Packard).
“% of control” is determined from the “counts per minutes” values and the IC50 value of a compound is calculated therefrom.

[2] = Relative stability of polymorphic forms of C1; format: physicochemical; conditions: form A1 versus form A2 of C1
Description: Two polymorphic forms A1 and A2 of the compound “C1” according to the invention can be isolated.
Form A2 can be converted into A1, for example by stirring in solvents such as methanol, ethanol, acetone, DMF, acetic acid, formic acid, THF or isopropanol.

## CCCCN(C)C(=O)c1cc(-c2n[nH]c(=O)n2-c2ccccc2C)c(O)cc1O [Compound C1, 5-[4-(2-methylphenyl)-3-hydroxy-4H-1,2,4-triazol-5-yl]-2,4-dihydroxy-N-methyl-N-butylbenzamide]
[1]; C1 versus A47 from the closest prior art
  higher activity in HSP90 inhibition compared with "A47": approximately 10 times
[1]; [3H]17AAG 0.08 μM, 22° C., 30 min, read-out: HSP90 inhibition IC50
  IC50: 29 nM

## CCCCN(C)C(=O)c1cc(-c2nnc(O)n2-c2ccccc2C)c(O)cc1O [Form A1, 5-[4-(2-methylphenyl)-3-hydroxy-4H-1,2,4-triazol-5-yl]-2,4-dihydroxy-N-methyl-N-butylbenzamide]
[2]
  thermodynamic stability of polymorphic form: thermodynamically more stable form
